Reference: patent US11639350B2, “Heteroaryldihydropyrimidine derivatives and methods of treating hepatitis B infections” (Janssen Pharmaceutica NV, priority 2018, dated 2023)
Read-outs that look alike come from different tables or passages of the source.

Tests used:
HBV = HBV inhibitory activity: HBV DNA in the culture medium of HepG2.2.15 cells by q-PCR; type: cell-based; details: HepG2.2.15 cells, 6 days of compound treatment, HBV DNA in culture medium by q-PCR, highest concentration 10 μM, read-out: EC50
Outline: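 Supernatant HBV DNA quantified by q-PCR after a 6-day compound exposure, with one mid-course medium change, of HepG2.2.15 cells (stably integrated HBV; 40,000 per well, 2% FBS). Eight-point 3-fold series topped at 10 μM for antiviral EC50; separate plates of 5,000 cells per well with 100 μM top give CC50.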

HepG2.2.15 cells = assay: Cytotoxicity determination in HepG2.2.15 cells (CCK-8); type: cell-based; details: 6 days of compound treatment, CCK-8, highest concentration 100 μM
Outline: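 CC50 is from CCK-8 absorbance (450 nm, 630 nm reference) after 2.5 h with reagent. Before that, compounds were applied for six days, top concentration 100 μM, eight threefold dilutions, one mid-course medium change, to stably HBV-integrated HepG2.2.15 cells plated at 5,000/well in 2% FBS.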

| Structure (SMILES) | EC50 (HBV) [nM] | CC50 (HepG2.2.15 cells) [nM] | EC50 (HBV; Hepatitis B virus, HepG2.2.15, 144 h) [nM] |
| --- | --- | --- | --- |
| COC(=O)C1=C(C2COC(CO)C2)NC(c2nccs2)=NC1c1cccc(F)c1Cl (single isomer, unassigned) [Compound 219C, Methyl 4-(2-chloro-3-fluorophenyl)-6-(5-(hydroxymethyl)-tetrahydrofuran-3-yl)-2-(thiazol-2-yl)-1,4-dihydropyrimidine-5-carboxylate] | 176 | 10300 |  |
| COC(=O)C1=C(C2COC(CO)C2)NC(c2nccs2)=NC1c1cccc(F)c1Cl (single isomer, unassigned) [Compound 219E, Methyl 4-(2-chloro-3-fluorophenyl)-6-(5-(hydroxymethyl)-tetrahydrofuran-3-yl)-2-(thiazol-2-yl)-1,4-dihydropyrimidine-5-carboxylate] | 134 | 51400 |  |
| COC(=O)C1=C(C2COC(CO)C2)NC(c2nccs2)=NC1c1cccc(F)c1Cl (single isomer, unassigned) [Compound 219H, Methyl 4-(2-chloro-3-fluorophenyl)-6-(5-(hydroxymethyl)-tetrahydrofuran-3-yl)-2-(thiazol-2-yl)-1,4-dihydropyrimidine-5-carboxylate] | 334 | 1500 |  |
| COC(=O)C1=C(C2CCN(S(=O)(=O)[C@H]3C[C@H](C(=O)O)C3)CC2)NC(c2nccs2)=NC1c1ccc(F)c(F)c1Cl (single isomer, unassigned) [Compound 232X, (trans)-3-((4-(6-(2-Chloro-3,4-difluorophenyl)-5-(methoxycarbonyl)-2-(thiazol-2-yl)-3,6-dihydropyrimidin-4-yl)piperidin-1-yl)sulfonyl)cyclobutanecarboxylic Acid] | 105 | 70000 |  |
| CCCS(=O)(=O)N1CCC(C2=C(C(=O)OC)C(c3ccc(F)cc3Cl)N=C(c3nccs3)N2)C1 (single isomer, unassigned) [Compound 256A, Methyl 4-(2-chloro-4-fluorophenyl)-6-(−1-(propylsulfonyl)pyrrolidin-3-yl)-2-(thiazol-2-yl)-1,4-dihydropyrimidine-5-carboxylate] | 82 | > 100000 |  |
| CCCS(=O)(=O)N1CCC(C2=C(C(=O)OC)C(c3ccc(F)cc3Cl)N=C(c3nccs3)N2)C1 (single isomer, unassigned) [Compound 256D, Methyl 4-(2-chloro-4-fluorophenyl)-6-(−1-(propylsulfonyl)pyrrolidin-3-yl)-2-(thiazol-2-yl)-1,4-dihydropyrimidine-5-carboxylate] | 964 | 22900 |  |
| CCOC(=O)C1=C([C@@H]2CC[C@H](C(=O)O)OC2)NC(c2nccs2)=NC1c1ccc(F)cc1Cl (single isomer, unassigned) [Compound 265H, (cis)-5-(−6-(2-Chloro-4-fluorophenyl)-5-(ethoxycarbonyl)-2-(thiazol-2-yl)-3,6-dihydropyrimidin-4-yl)tetrahydro-2H-pyran-2-carboxylic Acid] | 214 | > 100000 |  |
| CCOC(=O)C1=C(C2CCN(S(=O)(=O)C3CC(C)(C(=O)O)C3)CC2)NC(c2nccs2)=NC1c1ccc(F)cc1Br (single isomer, unassigned) [Compound 282C, (trans)-3-((4-(−6-(2-Bromo-4-fluorophenyl)-5-(ethoxycarbonyl)-2-(thiazol-2-yl)-3,6-dihydropyrimidin-4-yl)piperidin-1-yl)sulfonyl)-1-methylcyclobutanecarboxylic Acid] | 15 | 15700 |  |
| CCOC(=O)C1=C(C2CCN(S(=O)(=O)C3CC(C)(C(=O)O)C3)CC2)NC(c2nccs2)=NC1c1ccc(F)cc1Br (single isomer, unassigned) [Compound 282D, (cis)-3-((4-(6-(2-Bromo-4-fluorophenyl)-5-(ethoxycarbonyl)-2-(thiazol-2-yl)-3,6-dihydropyrimidin-4-yl)piperidin-1-yl)sulfonyl)-1-methylcyclobutanecarboxylic Acid] | 39 | 11200 |  |
| COC(=O)C1=C([C@H]2CC[C@H](NS(C)(=N)=O)CC2)NC(c2nccs2)=NC1c1ccc(F)cc1Cl (single isomer, unassigned) [Compound 287B, Methyl 4-(2-chloro-4-fluorophenyl)-6-((trans)-4-(methylsulfonoimidamido)cyclohexyl)-2-(thiazol-2-yl)-1,4-dihydropyrimidine-5-carboxylate] |  | 23100 | 72 |
| COC(=O)C1=C([C@H]2CC[C@H](NS(C)(=N)=O)CC2)NC(c2nccs2)=NC1c1ccc(F)cc1Cl (single isomer, unassigned) [Compound 287D, Methyl 4-(2-chloro-4-fluorophenyl)-6-((trans)-4-(methylsulfonoimidamido)cyclohexyl)-2-(thiazol-2-yl)-1,4-dihydropyrimidine-5-carboxylate] | 67 | 60000 |  |
| COC(=O)C1=C(C2CCC(NC(C)=O)C2)NC(c2nccs2)=NC1c1ccc(F)c(F)c1Cl (single isomer, unassigned) [Compound 300B, Methyl 6-(−3-acetamidocyclopentyl)-4-(2-chloro-3,4-difluorophenyl)-2-(thiazol-2-yl)-1,4-dihydropyrimidine-5-carboxylate] | 13 | 28600 |  |
| COC(=O)C1=C(C2CCC(NC(C)=O)C2)NC(c2nccs2)=NC1c1ccc(F)c(F)c1Cl (single isomer, unassigned) [Compound 300D, Methyl 6-(−3-acetamidocyclopentyl)-4-(2-chloro-3,4-difluorophenyl)-2-(thiazol-2-yl)-1,4-dihydropyrimidine-5-carboxylate] | 14 | 12600 |  |
| COC(=O)C1=C(C2CCC(NC(C)=O)C2)NC(c2nccs2)=NC1c1ccc(F)c(F)c1Cl (single isomer, unassigned) [Compound 300G, Methyl 6-(−3-acetamidocyclopentyl)-4-(2-chloro-3,4-difluorophenyl)-2-(thiazol-2-yl)-1,4-dihydropyrimidine-5-carboxylate] | 122 | 23900 |  |
| CCOC(=O)C1=C([C@H]2CCC[C@H](C(=O)O)CC2)NC(c2nccs2)=NC1c1ccc(F)c(F)c1Cl (single isomer, unassigned) [Compound 302F, (trans)-4-(−6-(2-Chloro-3,4-difluorophenyl)-5-(ethoxycarbonyl)-2-(thiazol-2-yl)-3,6-dihydropyrimidin-4-yl)cycloheptanecarboxylic Acid] | 37 | 10300 |  |
| COC(=O)C1=C(C2CCN(S(=O)(=O)CC(O)CO)CC2)NC(c2nccs2)=NC1c1ccc(F)cc1Cl (single isomer, unassigned) [Compound 305B, Methyl 4-(2-chloro-4-fluorophenyl)-6-(1-((2,3-dihydroxypropyl)sulfonyl)piperidin-4-yl)-2-(thiazol-2-yl)-1,4-dihydropyrimidine-5-carboxylate] | 25 | 34500 |  |
| CCOC(=O)C1=C(C2CCN(S(=O)(=O)C3CC(C)(C(=O)O)C3)CC2)NC(c2nccs2)=NC1c1cccc(F)c1Cl (single isomer, unassigned) [Compound 321A, (trans)-3-((4-(6-(2-Chloro-3-fluorophenyl)-5-(ethoxycarbonyl)-2-(thiazol-2-yl)-3,6-dihydropyrimidin-4-yl)piperidin-1-yl)sulfonyl)-1-methylcyclobutanecarboxylic Acid] | 12 | 17200 |  |
| CCOC(=O)C1=C(C2CCN(S(=O)(=O)C3CC(C)(C(=O)O)C3)CC2)NC(c2nccs2)=NC1c1cccc(F)c1Cl (single isomer, unassigned) [Compound 321B, (cis)-3-((4-(6-(2-Chloro-3-fluorophenyl)-5-(ethoxycarbonyl)-2-(thiazol-2-yl)-3,6-dihydropyrimidin-4-yl)piperidin-1-yl)sulfonyl)-1-methylcyclobutanecarboxylic Acid] | 60 | 15800 |  |
| COC(=O)C1=C(C2CCN(S(=O)(=O)C3CC(C)(C(=O)OC)C3)CC2)NC(c2nccs2)=NC1c1ccc(F)c(F)c1Cl (single isomer, unassigned) [Compound 323C, trans-methyl 4-(2-chloro-3,4-difluorophenyl)-6-(1-((3-(methoxycarbonyl)-3-methylcyclobutyl)sulfonyl)piperidin-4-yl)-2-(thiazol-2-yl)-1,4-dihydropyrimidine-5-carboxylate] | 10 | 24100 |  |
| COC(=O)C1=C(C2CCN(S(=O)(=O)C3CC(C)(C(=O)OC)C3)CC2)NC(c2nccs2)=NC1c1ccc(F)c(F)c1Cl (single isomer, unassigned) [Compound 323D, cis-methyl 4-(2-chloro-3,4-difluorophenyl)-6-(1-((3-(methoxycarbonyl)-3-methylcyclobutyl)sulfonyl)piperidin-4-yl)-2-(thiazol-2-yl)-1,4-dihydropyrimidine-5-carboxylate] | 30 | 28600 |  |
| COC(=O)C1=C(C2CCN(S(=O)(=O)C3CC(O)C3)CC2)NC(c2nccs2)=NC1c1ccc(F)cc1Cl (single isomer, unassigned) [Compound 335B, Methyl 4-(2-chloro-4-fluorophenyl)-6-(1-((3-hydroxycyclobutyl)sulfonyl)piperidin-4-yl)-2-(thiazol-2-yl)-1,4-dihydropyrimidine-5-carboxylate] | 13 | 15200 |  |
